Data published in ChEMBL document CHEMBL1909046, “DrugMatrix in vitro pharmacology data”.

Target: Cytochrome P450 3A4 (Homo sapiens, UniProt P08684); also: in other assays of this panel Not Active means under 50% inhibition at 10 µM
Conditions: bti-tn-5b1-4

Chain of Cytochrome P450 3A4 (P08684 whole entry): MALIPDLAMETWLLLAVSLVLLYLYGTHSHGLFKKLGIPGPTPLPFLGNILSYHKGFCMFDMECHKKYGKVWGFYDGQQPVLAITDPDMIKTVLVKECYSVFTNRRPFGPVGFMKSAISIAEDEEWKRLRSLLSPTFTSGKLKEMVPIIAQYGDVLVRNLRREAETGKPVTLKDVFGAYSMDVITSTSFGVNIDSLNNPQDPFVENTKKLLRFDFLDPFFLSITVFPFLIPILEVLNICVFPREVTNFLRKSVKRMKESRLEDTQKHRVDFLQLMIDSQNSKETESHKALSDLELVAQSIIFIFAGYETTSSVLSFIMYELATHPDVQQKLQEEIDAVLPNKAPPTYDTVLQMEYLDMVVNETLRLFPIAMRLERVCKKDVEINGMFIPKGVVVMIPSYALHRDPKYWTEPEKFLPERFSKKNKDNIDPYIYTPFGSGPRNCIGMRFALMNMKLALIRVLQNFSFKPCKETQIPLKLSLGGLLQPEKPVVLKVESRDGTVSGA

Structure (SMILES)	IC50	Ki
COC(=O)Nc1nc2cc(C(=O)c3ccc(F)cc3)ccc2[nH]1 [FLUBENDAZOLE]	Not Active	Not Active
CC(=O)OCC(=O)[C@@]1(O)CC[C@H]2[C@@H]3CCC4=CC(=O)CC[C@]4(C)[C@@]3(F)[C@@H](O)C[C@@]21C [FLUDROCORTISONE ACETATE]	Not Active	Not Active
Cc1ccc(C)c(OCCCC(C)(C)C(=O)O)c1 [GEMFIBROZIL]	Not Active	Not Active
CCC1=C(C)CN(C(=O)NCCc2ccc(S(=O)(=O)NC(=O)N[C@H]3CC[C@H](C)CC3)cc2)C1=O [GLIMEPIRIDE]	Not Active	Not Active
Nc1cc(-c2ccncc2)c[nH]c1=O [INAMRINONE]	Not Active	Not Active
CCCCC1=NC2(CCCC2)C(=O)N1Cc1ccc(-c2ccccc2-c2nnn[nH]2)cc1 [IRBESARTAN]	Not Active	Not Active

Tested on: not listed separately
Assay: DRUGMATRIX: Leukotriene, BLT (LTB4) radioligand binding (ligand: [3H]LTB4)
Assay type: cell membranes, Membrane
Conditions: u-937; Not Active = under 50% inhibition at 10 µM

Structure (SMILES)	IC50	Ki
COC(=O)Nc1nc2cc(C(=O)c3ccc(F)cc3)ccc2[nH]1 [FLUBENDAZOLE]	Not Active	Not Active
CC(=O)OCC(=O)[C@@]1(O)CC[C@H]2[C@@H]3CCC4=CC(=O)CC[C@]4(C)[C@@]3(F)[C@@H](O)C[C@@]21C [FLUDROCORTISONE ACETATE]	Not Active	Not Active
Cc1ccc(C)c(OCCCC(C)(C)C(=O)O)c1 [GEMFIBROZIL]	Not Active	Not Active
CCC1=C(C)CN(C(=O)NCCc2ccc(S(=O)(=O)NC(=O)N[C@H]3CC[C@H](C)CC3)cc2)C1=O [GLIMEPIRIDE]	Not Active	Not Active
Nc1cc(-c2ccncc2)c[nH]c1=O [INAMRINONE]	Not Active	Not Active
CCCCC1=NC2(CCCC2)C(=O)N1Cc1ccc(-c2ccccc2-c2nnn[nH]2)cc1 [IRBESARTAN]	Not Active	Not Active

Tested on: not listed separately
Assay: DRUGMATRIX: Glutamate, NMDA, Phencyclidine radioligand binding (ligand: [3H] TCP)
Assay type: cell membranes, Rattus norvegicus, Wistar, Cerebral cortex, Membrane
Conditions: Not Active = under 50% inhibition at 10 µM

Structure (SMILES)	IC50	Ki
COC(=O)Nc1nc2cc(C(=O)c3ccc(F)cc3)ccc2[nH]1 [FLUBENDAZOLE]	Not Active	Not Active
CC(=O)OCC(=O)[C@@]1(O)CC[C@H]2[C@@H]3CCC4=CC(=O)CC[C@]4(C)[C@@]3(F)[C@@H](O)C[C@@]21C [FLUDROCORTISONE ACETATE]	Not Active	Not Active
Cc1ccc(C)c(OCCCC(C)(C)C(=O)O)c1 [GEMFIBROZIL]	Not Active	Not Active
CCC1=C(C)CN(C(=O)NCCc2ccc(S(=O)(=O)NC(=O)N[C@H]3CC[C@H](C)CC3)cc2)C1=O [GLIMEPIRIDE]	Not Active	Not Active
Nc1cc(-c2ccncc2)c[nH]c1=O [INAMRINONE]	Not Active	Not Active
CCCCC1=NC2(CCCC2)C(=O)N1Cc1ccc(-c2ccccc2-c2nnn[nH]2)cc1 [IRBESARTAN]	Not Active	Not Active

Tested on: not listed separately
Assay: DRUGMATRIX: Serotonin (5-Hydroxytryptamine) 5-HT3 radioligand binding (ligand: [3H] GR-65630)
Assay type: cell membranes, Membrane
Conditions: hek293; Not Active = under 50% inhibition at 10 µM

Structure (SMILES)	IC50	Ki
COC(=O)Nc1nc2cc(C(=O)c3ccc(F)cc3)ccc2[nH]1 [FLUBENDAZOLE]	Not Active	Not Active
CC(=O)OCC(=O)[C@@]1(O)CC[C@H]2[C@@H]3CCC4=CC(=O)CC[C@]4(C)[C@@]3(F)[C@@H](O)C[C@@]21C [FLUDROCORTISONE ACETATE]	Not Active	Not Active
Cc1ccc(C)c(OCCCC(C)(C)C(=O)O)c1 [GEMFIBROZIL]	Not Active	Not Active
CCC1=C(C)CN(C(=O)NCCc2ccc(S(=O)(=O)NC(=O)N[C@H]3CC[C@H](C)CC3)cc2)C1=O [GLIMEPIRIDE]	Not Active	Not Active
Nc1cc(-c2ccncc2)c[nH]c1=O [INAMRINONE]	Not Active	Not Active
CCCCC1=NC2(CCCC2)C(=O)N1Cc1ccc(-c2ccccc2-c2nnn[nH]2)cc1 [IRBESARTAN]	Not Active	Not Active

Target: Delta-type opioid receptor (Homo sapiens, UniProt P41143); also: in other assays of this panel Not Active means under 50% inhibition at 10 µM
Sequence (P41143 whole entry): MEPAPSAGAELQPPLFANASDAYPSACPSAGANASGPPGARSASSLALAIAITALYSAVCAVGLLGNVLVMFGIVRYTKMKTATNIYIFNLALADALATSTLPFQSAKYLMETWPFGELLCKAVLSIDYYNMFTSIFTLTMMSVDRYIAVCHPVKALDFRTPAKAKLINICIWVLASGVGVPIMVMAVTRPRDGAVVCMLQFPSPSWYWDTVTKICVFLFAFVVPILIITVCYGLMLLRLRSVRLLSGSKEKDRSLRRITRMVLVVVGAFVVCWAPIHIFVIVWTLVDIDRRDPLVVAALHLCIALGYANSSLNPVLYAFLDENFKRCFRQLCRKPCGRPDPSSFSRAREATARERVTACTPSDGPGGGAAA
Assay type: cell membranes, HEK293, Membrane
Conditions: hek293

Structure (SMILES)	IC50
COC(=O)Nc1nc2cc(C(=O)c3ccc(F)cc3)ccc2[nH]1 [FLUBENDAZOLE]	Not Active
CC(=O)OCC(=O)[C@@]1(O)CC[C@H]2[C@@H]3CCC4=CC(=O)CC[C@]4(C)[C@@]3(F)[C@@H](O)C[C@@]21C [FLUDROCORTISONE ACETATE]	Not Active
Cc1ccc(C)c(OCCCC(C)(C)C(=O)O)c1 [GEMFIBROZIL]	Not Active
CCC1=C(C)CN(C(=O)NCCc2ccc(S(=O)(=O)NC(=O)N[C@H]3CC[C@H](C)CC3)cc2)C1=O [GLIMEPIRIDE]	Not Active
Nc1cc(-c2ccncc2)c[nH]c1=O [INAMRINONE]	Not Active
CCCCC1=NC2(CCCC2)C(=O)N1Cc1ccc(-c2ccccc2-c2nnn[nH]2)cc1 [IRBESARTAN]	Not Active

Target: T1, Angiotensin-converting enzyme (Oryctolagus cuniculus, UniProt P12822);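 also: enzymatic inhibition of angiotensin-converting enzyme measured with FAPGG as the substrate; in other assays of this panel Not Active means under 50% inhibition at 10 µM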
T1 sequence (P12822 whole entry): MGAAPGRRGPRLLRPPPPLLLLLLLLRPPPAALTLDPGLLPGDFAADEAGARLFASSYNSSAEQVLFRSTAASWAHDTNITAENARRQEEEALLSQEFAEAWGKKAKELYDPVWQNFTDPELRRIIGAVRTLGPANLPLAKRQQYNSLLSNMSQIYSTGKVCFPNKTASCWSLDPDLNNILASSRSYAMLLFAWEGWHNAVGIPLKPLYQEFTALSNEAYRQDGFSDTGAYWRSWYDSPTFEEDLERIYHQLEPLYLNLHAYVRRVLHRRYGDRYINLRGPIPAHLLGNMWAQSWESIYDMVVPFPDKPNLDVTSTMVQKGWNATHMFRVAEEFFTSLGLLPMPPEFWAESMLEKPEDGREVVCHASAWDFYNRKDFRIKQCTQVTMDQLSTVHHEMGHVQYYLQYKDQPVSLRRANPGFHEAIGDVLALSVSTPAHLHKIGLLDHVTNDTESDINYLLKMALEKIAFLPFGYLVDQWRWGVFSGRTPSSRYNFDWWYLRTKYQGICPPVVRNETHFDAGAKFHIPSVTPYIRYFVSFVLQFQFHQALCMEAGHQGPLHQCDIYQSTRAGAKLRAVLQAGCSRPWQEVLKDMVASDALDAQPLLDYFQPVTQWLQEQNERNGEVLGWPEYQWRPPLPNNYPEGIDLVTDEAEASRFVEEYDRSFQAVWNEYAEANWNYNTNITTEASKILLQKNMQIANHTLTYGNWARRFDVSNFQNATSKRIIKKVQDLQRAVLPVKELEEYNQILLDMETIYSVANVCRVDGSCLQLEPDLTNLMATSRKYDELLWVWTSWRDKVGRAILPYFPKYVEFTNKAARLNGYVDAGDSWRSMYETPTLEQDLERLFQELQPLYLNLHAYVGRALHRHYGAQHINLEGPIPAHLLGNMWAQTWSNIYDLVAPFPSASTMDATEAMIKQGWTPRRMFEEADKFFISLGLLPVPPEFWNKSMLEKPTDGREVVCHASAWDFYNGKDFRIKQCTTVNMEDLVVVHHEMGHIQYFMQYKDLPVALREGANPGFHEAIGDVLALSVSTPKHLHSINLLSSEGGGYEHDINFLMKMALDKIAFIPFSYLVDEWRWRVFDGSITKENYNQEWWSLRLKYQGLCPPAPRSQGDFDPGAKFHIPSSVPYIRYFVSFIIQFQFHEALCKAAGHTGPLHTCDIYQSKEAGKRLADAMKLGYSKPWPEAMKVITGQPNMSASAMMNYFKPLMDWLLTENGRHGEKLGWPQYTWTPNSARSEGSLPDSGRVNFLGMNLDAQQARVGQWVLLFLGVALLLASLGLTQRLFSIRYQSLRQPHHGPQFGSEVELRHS
Assay type: tissue-based, Lung
Conditions: not given

Structure (SMILES)	IC50
COC(=O)Nc1nc2cc(C(=O)c3ccc(F)cc3)ccc2[nH]1 [FLUBENDAZOLE]	Not Active
CC(=O)OCC(=O)[C@@]1(O)CC[C@H]2[C@@H]3CCC4=CC(=O)CC[C@]4(C)[C@@]3(F)[C@@H](O)C[C@@]21C [FLUDROCORTISONE ACETATE]	Not Active
Cc1ccc(C)c(OCCCC(C)(C)C(=O)O)c1 [GEMFIBROZIL]	Not Active
CCC1=C(C)CN(C(=O)NCCc2ccc(S(=O)(=O)NC(=O)N[C@H]3CC[C@H](C)CC3)cc2)C1=O [GLIMEPIRIDE]	Not Active
Nc1cc(-c2ccncc2)c[nH]c1=O [INAMRINONE]	Not Active
CCCCC1=NC2(CCCC2)C(=O)N1Cc1ccc(-c2ccccc2-c2nnn[nH]2)cc1 [IRBESARTAN]	Not Active

Target: Estrogen receptor beta (Homo sapiens, UniProt Q92731); also: in other assays of this panel Not Active means under 50% inhibition at 10 µM
Sequence (Q92731 whole entry): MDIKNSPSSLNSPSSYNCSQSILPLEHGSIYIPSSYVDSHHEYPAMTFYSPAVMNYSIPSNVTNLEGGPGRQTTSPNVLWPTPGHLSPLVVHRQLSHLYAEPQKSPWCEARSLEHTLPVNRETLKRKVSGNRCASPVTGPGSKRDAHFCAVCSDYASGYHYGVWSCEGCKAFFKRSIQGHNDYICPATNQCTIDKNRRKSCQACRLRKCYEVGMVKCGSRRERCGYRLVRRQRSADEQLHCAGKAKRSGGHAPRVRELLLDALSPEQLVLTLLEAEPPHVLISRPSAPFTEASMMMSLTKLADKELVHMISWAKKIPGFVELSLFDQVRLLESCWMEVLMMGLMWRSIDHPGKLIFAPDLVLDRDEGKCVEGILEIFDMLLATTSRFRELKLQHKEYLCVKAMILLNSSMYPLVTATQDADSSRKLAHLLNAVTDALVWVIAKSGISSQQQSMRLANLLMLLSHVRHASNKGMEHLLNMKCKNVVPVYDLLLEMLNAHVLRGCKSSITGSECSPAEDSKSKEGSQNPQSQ
Conditions: sf9

Structure (SMILES)	IC50
COC(=O)Nc1nc2cc(C(=O)c3ccc(F)cc3)ccc2[nH]1 [FLUBENDAZOLE]	Not Active
CC(=O)OCC(=O)[C@@]1(O)CC[C@H]2[C@@H]3CCC4=CC(=O)CC[C@]4(C)[C@@]3(F)[C@@H](O)C[C@@]21C [FLUDROCORTISONE ACETATE]	Not Active
Cc1ccc(C)c(OCCCC(C)(C)C(=O)O)c1 [GEMFIBROZIL]	Not Active
CCC1=C(C)CN(C(=O)NCCc2ccc(S(=O)(=O)NC(=O)N[C@H]3CC[C@H](C)CC3)cc2)C1=O [GLIMEPIRIDE]	Not Active
Nc1cc(-c2ccncc2)c[nH]c1=O [INAMRINONE]	Not Active
CCCCC1=NC2(CCCC2)C(=O)N1Cc1ccc(-c2ccccc2-c2nnn[nH]2)cc1 [IRBESARTAN]	Not Active
